{
  "source": "patent US20210255205A1",
  "about": "“COMPOSITIONS AND METHODS FOR TREATING METABOLIC DISEASE” (THE REGENTS OF THE UNIVERSITY OF CALIFORNIA, priority 2018, published 2021)",
  "key": {"Aster-B GRAM domain [1]": {"biological_target": "T1, Aster-B GRAM domain (Mus musculus, UniProt Q80TI0)", "T1 construct": "B GRAM (Aster-B1-337) was conducted using PIP Strips (Echelon Biosciences); made in house; host or cells: Sf9 insect cells", "T1 sequence (Q80TI0 41-377 limits assumed)": "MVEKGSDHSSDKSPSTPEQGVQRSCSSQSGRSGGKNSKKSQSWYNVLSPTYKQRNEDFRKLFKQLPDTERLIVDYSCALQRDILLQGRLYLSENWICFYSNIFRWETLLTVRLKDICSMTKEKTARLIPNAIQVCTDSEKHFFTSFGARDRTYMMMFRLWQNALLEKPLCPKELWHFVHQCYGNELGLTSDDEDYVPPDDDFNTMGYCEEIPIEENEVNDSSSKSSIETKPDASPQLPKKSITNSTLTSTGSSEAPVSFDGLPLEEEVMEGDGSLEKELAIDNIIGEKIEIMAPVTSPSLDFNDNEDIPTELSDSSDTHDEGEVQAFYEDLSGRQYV", "assay": "protein-lipid overlay (PIP Strips)", "format": "binding", "conditions": "lipid strip, 100 pmol lipid per spot", "procedure": "FIG. 9A: Protein-lipid overlay over purified mouse Aster-B GRAM domain with various phospholipid species. PA and PS correspond to phosphatidic acid and phosphatidylserine, respectively. FIG. 9A discloses “6xHis” as SEQ ID NO: 11. FIG. 9B: Purified Aster-B GRAM domain was incubated with sucrose-loaded heavy liposomes containing Dansyl-PE and 80-85% PC or 80-85% PS+/−5% Cholesterol. Liposomes were sedimented, washed, and analyzed by immunoblotting for associated Aster-B Gram protein (anti-His antibody). FIG. 9C: Localization of full-length and B ΔGRAM Aster-B-GFP constructs with plasma membrane (CellMask stain) expressed in HeLa cells in the presence or absence of cholesterol loading imaged by live cell confocal microscopy. […] FIG. 9E: Quantification of Aster-B PH-EGFP intensity in the TIRF plane upon cholesterol loading (left panel; n=2-3 cells, error bars+/−SD). […] TIRF videos recorded 5 slices (slices 3-5 were used to calculate FO) before cholesterol addition. […]\n(§1) The Aster proteins contain an N-terminal GRAM domain, a structural motif related to the pleckstrin homology domain that is found in glucosyltransferases, Rab-like GTPase activators, myotubularins, and other membrane-associated proteins. […] Given that phosphatidylserine is highly enriched in the inner leaflet of the PM, it was further determined if the Aster-B GRAM domain was associated with phosphatidylserine-containing liposomes."}, "Aster-B GRAM domain [2]": {"biological_target": "T1, Aster-B GRAM domain", "assay": "liposome co-sedimentation assay", "format": "binding", "conditions": "sucrose-loaded heavy liposomes, 80-85% PC or PS", "procedure": "FIG. 9A: Protein-lipid overlay over purified mouse Aster-B GRAM domain with various phospholipid species. PA and PS correspond to phosphatidic acid and phosphatidylserine, respectively. FIG. 9A discloses “6xHis” as SEQ ID NO: 11. FIG. 9B: Purified Aster-B GRAM domain was incubated with sucrose-loaded heavy liposomes containing Dansyl-PE and 80-85% PC or 80-85% PS+/−5% Cholesterol. Liposomes were sedimented, washed, and analyzed by immunoblotting for associated Aster-B Gram protein (anti-His antibody). FIG. 9C: Localization of full-length and B ΔGRAM Aster-B-GFP constructs with plasma membrane (CellMask stain) expressed in HeLa cells in the presence or absence of cholesterol loading imaged by live cell confocal microscopy. […] FIG. 9E: Quantification of Aster-B PH-EGFP intensity in the TIRF plane upon cholesterol loading (left panel; n=2-3 cells, error bars+/−SD). […] TIRF videos recorded 5 slices (slices 3-5 were used to calculate FO) before cholesterol addition.\nas §1"}},
  "data": [
    {"substance": "phosphatidylserine [phosphatidylserine (PS)]", "values": [
      {"measurement": "interaction with purified Aster-B GRAM domain", "setting": "Aster-B GRAM domain [1]", "result": "interacted strongly"},
      {"measurement": "co-sedimentation of GRAM domain with liposomes", "setting": "Aster-B GRAM domain [2]", "result": "pelleted with"}
    ]}
  ]
}
